Test results from paper PMC7196807 (Proceedings of the National Academy of Sciences of the …, 2020).

Target: hIP6K1 (IP6K1) (Homo sapiens, UniProt Q92551)
Experiment: kinase product identified by Dipp1 cocrystal structure
Assay type: biochemical
Details: kinase site

Sequence of hIP6K1 (IP6K1) (Q92551 whole entry): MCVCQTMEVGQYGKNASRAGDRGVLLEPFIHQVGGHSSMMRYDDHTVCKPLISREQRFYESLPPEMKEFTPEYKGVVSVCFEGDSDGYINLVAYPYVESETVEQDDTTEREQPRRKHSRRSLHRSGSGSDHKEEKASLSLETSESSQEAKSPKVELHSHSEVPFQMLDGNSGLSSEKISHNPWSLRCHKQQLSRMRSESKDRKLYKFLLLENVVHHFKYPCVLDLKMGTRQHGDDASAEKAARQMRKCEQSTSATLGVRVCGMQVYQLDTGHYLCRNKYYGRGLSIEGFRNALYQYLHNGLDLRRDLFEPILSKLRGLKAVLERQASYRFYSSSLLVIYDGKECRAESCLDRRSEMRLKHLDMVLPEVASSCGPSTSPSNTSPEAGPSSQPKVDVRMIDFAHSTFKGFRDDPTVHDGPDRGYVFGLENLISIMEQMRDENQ

O=P(O)(O)O[C@H]1[C@@H](OP(=O)(O)O)[C@H](OP(=O)(O)O)[C@@H](OP(=O)(O)OP(=O)(O)O)[C@H](OP(=O)(O)O)[C@H]1OP(=O)(O)O [5-IP7]
kinase product identified by Dipp1 cocrystal structure: IP6K1 IP7 product/DIPP complex confirms the stereomer as unambiguously 5-IP7
